Patent US20250161216A1, “CATIONIC LIPID ANALOGUES, COMPOSITIONS AND USES THEREOF” (GUANGZHOU LIDE BIOMEDICINE TECHNOLOGY CO., LTD., priority 2022, published 2025)

What was measured:
C57BL/6 mice [1] = test: In vivo expression level of Luciferase-mRNA delivered by intravenous injection (bioluminescence imaging); details: mRNA-loaded nanoparticles, intravenous (tail vein), 5 μg Luciferase-mRNA, 6 hours; for Fluorescence intensity of liver / Bioluminescence intensity: compounds of Example 1
Outline: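 Lipid nanoparticles carrying 5 μg Luciferase-mRNA given by tail-vein injection to 6-8-week-old C57BL/6 mice. At 6 h, 3 mg D-luciferin i.p. in PBS; bioluminescence imaged 10 min later as the expression read-out.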

C57BL/6 mice [2] = test: In vivo expression level of Luciferase-mRNA delivered by intramuscular injection (bioluminescence imaging); details: mRNA-loaded nanoparticles, intramuscular (leg muscle), 5 μg Luciferase-mRNA, 6 hours
Method: Luciferase-mRNA was used as an mRNA model; and the cationic lipid analogues of Examples 1-5 were used to prepare drug-loaded nanoparticles according to the method of Example 6.
100 μL of nanoparticles containing 5 μg Luciferase-mRNA or the drug-loaded nanoparticles prepared above were injected into the leg muscles of 6-8 week-old C57BL/6 mice, and 200 μL of 1×PBS solution containing 3 mg D-Luciferin potassium salt was intraperitoneally injected into the mice 6 hours later. After waiting for 10 minutes, an in vivo expression level of the mRNA was evaluated by bioluminescence imaging.

Q: With `CCCCCCCCCCCCCCCCCCNC(=O)C(C(C)C)N(CCCN(C)C)C(=O)CCCCCCCCCCCCCCCCC` (stereo not drawn) [A1I18R2C18] as the molecule, how does the “Fluorescence intensity of liver” value (C57BL/6 mice [1]) read?
A: 2.26E+04

Q: And the Local fluorescence intensity (C57BL/6 mice [2]; compounds of Example 1)?
A: 1.36E+05

Q: How did the Bioluminescence intensity (C57BL/6 mice [1]) turn out when `CCCCCCCCCCCCCCCCCCNC(=O)C(C(C)C)N(CCN1CCCCC1)C(=O)CCCCCCCCCCCCCCCCC` (stereo not drawn) [A1I18R12C18] was run?
A: 9.34E+02

Q: What about the Local fluorescence intensity (C57BL/6 mice [2]; compounds of Example 1) of the same molecule?
A: 4.37E+04

Q: Which results are given for `CCCCCCCC/C=C\CCCCCCCC(=O)N(CCN(C)C)C(C(=O)NCCCCCCCCCCCCCCCCCC)C(CC)CCCC` (stereo not drawn) [A4I18R1C18-1]?
A: Bioluminescence intensity (C57BL/6 mice [1]): 1.39E+07; Local fluorescence intensity (C57BL/6 mice [2]; compounds of Example 1): 1.54E+07

Q: Which results are given for `CCCCCCCCCCSSCCC(=O)N(CCCC(=O)OC)C(C(=O)NCCN(CCNC(=O)C(C(C)C)N(CCCC(=O)OC)C(=O)CCSSCCCCCCCCCC)CCNC(=O)C(C(C)C)N(CCCC(=O)OC)C(=O)CCSSCCCCCCCCCC)C(C)C` (stereo not drawn) [A1I5R38S15]?
A: Fluorescence intensity of spleen (C57BL/6 mice [1]; compounds of Example 3): 1.14E+05; Local fluorescence intensity (C57BL/6 mice [2]; compounds of Example 3): 4.72E+04

Q: For `CCCCCCCC/C=C\CCCCCCCC(=O)N(CCO)C(C(=O)NCCN(C)CCNC(=O)C(C(CC)CCCC)N(CCO)C(=O)CCCCCCC/C=C\CCCCCCCC)C(CC)CCCC` (stereo not drawn) [A4I4R22C18-1], which “Fluorescence intensity of spleen” value (C57BL/6 mice [1]; compounds of Example 2) is on record?
A: 6.82E+05

Q: And the Local fluorescence intensity (C57BL/6 mice [2]; compounds of Example 2)?
A: 5.47E+05

Q: For `CCCCCCCCCCCCCC(=O)N(CCO)C(C(=O)NCCN(CCNC(=O)C(C(C)C)N(CCO)C(=O)CCCCCCCCCCCCC)CCNC(=O)C(C(C)C)N(CCO)C(=O)CCCCCCCCCCCCC)C(C)C` (stereo not drawn) [A1I5R22C14], which “Fluorescence intensity of spleen” value (C57BL/6 mice [1]; compounds of Example 3) is on record?
A: 1.20E+06

Q: What about the Local fluorescence intensity (C57BL/6 mice [2]; compounds of Example 3) of the same molecule?
A: 1.08E+05

Q: For `CCCCCCCC/C=C\CCCCCCCC(=O)N(CCO)C(C(=O)NCCN(C)CCNC(=O)C(C1CCCCC1)N(CCO)C(=O)CCCCCCC/C=C\CCCCCCCC)C1CCCCC1` (stereo not drawn) [A23I4R22C18-1], which “Fluorescence intensity of spleen” value (C57BL/6 mice [1]; compounds of Example 2) is on record?
A: 6.57E+05

Q: And the Local fluorescence intensity (C57BL/6 mice [2]; compounds of Example 2)?
A: 1.41E+05

Q: Which “Fluorescence intensity of spleen” value (C57BL/6 mice [1]; compounds of Example 2) does the source give for `CCCCCCCCCCCCCCCCCC(=O)N(CCO)C(C(=O)NCCN(C)CCNC(=O)C(C1CCCCC1)N(CCO)C(=O)CCCCCCCCCCCCCCCCC)C1CCCCC1` (stereo not drawn) [A23I4R22C18] here?
A: 4.61E+05

Q: And the Local fluorescence intensity (C57BL/6 mice [2]; compounds of Example 2)?
A: 3.41E+04

Q: How did the “Fluorescence intensity of liver” value (C57BL/6 mice [1]) turn out when `CCCCC/C=C\C/C=C\CCCCCCCC(=O)N(CCCN(C)C)C(C(=O)NCCCCCCCCCCCCCCCCCC)C(C)C` (stereo not drawn) [A1I18R2C18-2] was run?
A: 5.42E+04

Q: And the Local fluorescence intensity (C57BL/6 mice [2]; compounds of Example 1)?
A: 7.88E+04

Q: With `CCCCCCCCCCSSCCC(=O)N(CC(=O)OCC)C(C(=O)NCCN(CCNC(=O)C(C(C)C)N(CC(=O)OCC)C(=O)CCSSCCCCCCCCCC)CCNC(=O)C(C(C)C)N(CC(=O)OCC)C(=O)CCSSCCCCCCCCCC)C(C)C` (stereo not drawn) [A1I5R37S15] as the molecule, how does the “Fluorescence intensity of spleen” value (C57BL/6 mice [1]; compounds of Example 3) read?
A: 1.61E+05

Q: What about the Local fluorescence intensity (C57BL/6 mice [2]; compounds of Example 3) of the same molecule?
A: 1.26E+06

Q: What does the source list for `CCCCC/C=C\C/C=C\CCCCCCCC(=O)N(CCC)C(C(=O)NCCN(C)CCNC(=O)C(C(C)C)N(CCC)C(=O)CCCCCCC/C=C\C/C=C\CCCCC)C(C)C` (stereo not drawn) [A1I4R21C18-2]?
A: Fluorescence intensity of spleen (C57BL/6 mice [1]; compounds of Example 2): 6.62E+05; Local fluorescence intensity (C57BL/6 mice [2]; compounds of Example 2): 3.17E+05

Q: How did the “Fluorescence intensity of liver” value (C57BL/6 mice [1]) turn out when `CCCCCCCCCCCCCCCCCCNC(=O)C(C1CCCCC1)N(CCCN(C)C)C(=O)CCCCCCCCCCCCCCCCC` (stereo not drawn) [A23I18R2C18] was run?
A: 3.87E+05

Q: What about the Local fluorescence intensity (C57BL/6 mice [2]; compounds of Example 1) of the same molecule?
A: 4.83E+04

Q: With `CCCCCCCCCCCCCCCCCCNC(=O)C(C1CCCCC1)N(CCCN1CCOCC1)C(=O)CCCCCCCCCCCCCCCCC` (stereo not drawn) [A23I18R5C18] as the molecule, how does the “Fluorescence intensity of liver” value (C57BL/6 mice [1]) read?
A: 1.85E+03

Q: And the Local fluorescence intensity (C57BL/6 mice [2]; compounds of Example 1)?
A: 9.13E+04

Q: `CCCCC/C=C\C/C=C\CCCCCCCC(=O)N(CCN(C)C)C(C(=O)NCCCCCCCCCCCCCCCCCC)C(CC)CCCC` (stereo not drawn) [A4I18R1C18-2] was tested. Which “Fluorescence intensity of liver” value (C57BL/6 mice [1]) did it give?
A: 9.67E+06

Q: What about the Local fluorescence intensity (C57BL/6 mice [2]; compounds of Example 1) of the same molecule?
A: 2.11E+07

Q: Which results are given for `CCCCCCCCCCCCCCCCCCNC(=O)C(C(CC)CCCC)N(CCN1CCCCC1)C(=O)CCCCCCCCCCCCCCCCC` (stereo not drawn) [A4I18R12C18]?
A: Fluorescence intensity of liver (C57BL/6 mice [1]): 2.31E+03; Local fluorescence intensity (C57BL/6 mice [2]; compounds of Example 1): 1.75E+05

Q: With `CCCCCCCCCCSSCCC(=O)N(C(CC)COC)C(C(=O)NCCN(CCNC(=O)C(C(C)C)N(C(=O)CCSSCCCCCCCCCC)C(CC)COC)CCNC(=O)C(C(C)C)N(C(=O)CCSSCCCCCCCCCC)C(CC)COC)C(C)C` (stereo not drawn) [A1I5R33S15] as the molecule, how does the “Fluorescence intensity of spleen” value (C57BL/6 mice [1]; compounds of Example 3) read?
A: 2.33E+05

Q: What about the Local fluorescence intensity (C57BL/6 mice [2]; compounds of Example 3) of the same molecule?
A: 1.52E+06

Q: Which “Fluorescence intensity of spleen” value (C57BL/6 mice [1]; compounds of Example 3) does the source give for `CCCCCCCCCCSSCCC(=O)N(C(C(=O)NCCN(CCNC(=O)C(C(C)C)N(C(=O)CCSSCCCCCCCCCC)C(C)(CO)CO)CCNC(=O)C(C(C)C)N(C(=O)CCSSCCCCCCCCCC)C(C)(CO)CO)C(C)C)C(C)(CO)CO` (stereo not drawn) [A1I5R29S15] here?
A: 3.13E+05

Q: And the Local fluorescence intensity (C57BL/6 mice [2]; compounds of Example 3)?
A: 7.63E+04

Q: Which results are given for `CCCCC/C=C\C/C=C\CCCCCCCC(=O)N(CCOC)C(C(=O)NCCN(C)CCNC(=O)C(C(CC)CCCC)N(CCOC)C(=O)CCCCCCC/C=C\C/C=C\CCCCC)C(CC)CCCC` (stereo not drawn) [A4I4R23C18-2]?
A: Fluorescence intensity of spleen (C57BL/6 mice [1]; compounds of Example 2): 4.96E+05; Local fluorescence intensity (C57BL/6 mice [2]; compounds of Example 2): 1.93E+04
